These are literature values, as cited in US8377956B2, “Use of (3R)-4-{[(1S)-2-methyl-1-(2-methylpropanoyloxy)propoxy]carbonylamino}-3-(4-chlorophenyl) butanoic acid for treating urinary incontinence” (XenoPort, Inc., priority 2010, dated 2013).

The subject of this data set is patients with unstable bladder syndrome. The note with it: 5 mg four times per day.

Take `NCC(CC(=O)O)c1ccc(Cl)cc1` (racemic) [baclofen, (±)-4-Amino-3-(4-chlorophenyl)butanoic acid]: the “diurnal and nocturnal frequency of micturition” value is “significantly improve”; the severity of incontinence result is recorded as “significantly improve”.
